# Assay results reported in patent US20120122727A1, “IN VITRO METHOD FOR PREDICTING WHETHER A COMPOUND IS GENOTOXIC IN VIVO” (priority 2009, published 2012).
# Tests used:
# [1] = system: primary mouse hepatocytes
# [2] = in vivo; cited from earlier work
# [3] = system: primary mouse hepatocytes; test: Gene expression (Affymetrix Mouse Genome 430 2.0) in primary mouse hepatocytes, true vs false GTX, 24 h and 48 h
compound,measurement,setting,value
"Oc1cccc2cccnc12 [8Q, 8-Hydroxyquinoline]",Gene expression data AF204959 (Cyp3a25 /// LOC622249),[1],−0.4178
same,GTX in vivo,[2],−
same,Gene expression AA561726 average,[3],0.1739
same,Gene expression AF000969 average,[3],−0.1809
same,Gene expression AF022072 average,[3],0.0814
same,Gene expression AF033112 average,[3],−0.01703
same,Gene expression AF055573 average,[3],−0.09457
same,Gene expression AF069954 average,[3],0.1841
same,Gene expression AF297615 average,[3],−0.009333
same,Gene expression AF335325 average,[3],0.1418
same,Gene expression AI594683 average,[3],0.1235
same,Gene expression AI747296 average,[3],−0.0009667
same,Gene expression AK005731 average,[3],−0.03997
same,Gene expression AK007854 average,[3],0.05973
same,Gene expression AK010447 average,[3],0.06223
same,Gene expression AK010738 average,[3],0.3608
same,Gene expression AK014608 average,[3],−0.2447
same,Gene expression AK017734 average,[3],0.0878
same,Gene expression AK018383 average,[3],0.0679
same,Gene expression AK019979 average,[3],−0.2154
same,Gene expression AV095209 average,[3],0.2602
same,Gene expression AV141095 average,[3],−0.1725
same,Gene expression AV173869 average,[3],−0.02557
same,Gene expression AV216768 average,[3],0.1679
same,Gene expression AV219418 average,[3],0.4492
same,Gene expression AV221299 average,[3],0.1454
same,Gene expression AV246296 average,[3],−0.1136
same,Gene expression AV251625 average,[3],0.03813
same,Gene expression AV254764 average,[3],0.02403
same,Gene expression AV327248 average,[3],0.1176
same,Gene expression BB009155 average,[3],0.006467
same,Gene expression BB027848 average,[3],−0.06607
same,Gene expression BB043558 average,[3],−0.2347
same,Gene expression BB046347 average,[3],0.1608
same,Gene expression BB140436 average,[3],0.2861
same,Gene expression BB204486 average,[3],0.1305
same,Gene expression BB223872 average,[3],0.05753
same,Gene expression BB246912 average,[3],0.3325
same,Gene expression BB275142 average,[3],0.0112
same,Gene expression BB458460 average,[3],0.1317
same,Gene expression BB463610 average,[3],−0.2369
same,Gene expression BB730977 average,[3],0.3298
same,Gene expression BB743970 average,[3],0.1936
same,Gene expression BB770528 average,[3],−0.01823
same,Gene expression BB781615 average,[3],−0.006367
same,Gene expression BC003284 average,[3],0.09
same,Gene expression BC004827 average,[3],−0.07043
same,Gene expression BC005552 average,[3],0.1343
same,Gene expression BC006713 average,[3],−0.1035
same,Gene expression BC010318 average,[3],0.0565
same,Gene expression BC012247 average,[3],−0.006933
same,Gene expression BC012955 average,[3],−0.3049
same,Gene expression BC013893 average,[3],−0.1654
same,Gene expression BC017615 average,[3],−0.4904
same,Gene expression BC019379 average,[3],−0.1555
same,Gene expression BC019882 average,[3],−0.1719
same,Gene expression BC021352 average,[3],0.4721
same,Gene expression BC022148 average,[3],0.04497
same,Gene expression BC025169 average,[3],0.02213
same,Gene expression BC026131 average,[3],−0.0852
same,Gene expression BC027026 average,[3],0.2479
same,Gene expression BC027121 average,[3],−0.1207
same,Gene expression BC027185 average,[3],−0.1209
same,Gene expression BE956581 average,[3],0.403
same,Gene expression BF719766 average,[3],−0.2717
same,Gene expression BG065754 average,[3],−0.0909
same,Gene expression BG066491 average,[3],−0.1771
same,Gene expression BG076151 average,[3],−0.1887
same,Gene expression BG076333 average,[3],−0.05333
same,Gene expression BG797099 average,[3],0.0658
same,Gene expression BG967046 average,[3],−0.09257
same,Gene expression BI651416 average,[3],0.06777
same,Gene expression BI966443 average,[3],0.1335
same,Gene expression BM198879 average,[3],−0.05617
same,Gene expression BM200015 average,[3],0.08087
same,Gene expression BM230508 average,[3],0.07603
same,Gene expression BM936480 average,[3],0.0483
same,Gene expression BQ174991 average,[3],−0.1546
same,Gene expression L21027 average,[3],0.2905
same,Gene expression NM_007556 average,[3],0.0638
same,Gene expression NM_007980 average,[3],−0.5064
same,Gene expression NM_007987 average,[3],0.03487
same,Gene expression NM_008522 average,[3],0.0486
same,Gene expression NM_008935 average,[3],0.4082
same,Gene expression NM_009897 average,[3],0.111
same,Gene expression NM_011075 average,[3],0.1618
same,Gene expression NM_011176 average,[3],0.1358
same,Gene expression NM_011316 average,[3],0.06377
same,Gene expression NM_012006 average,[3],0.5806
same,Gene expression NM_013642 average,[3],0.2659
same,Gene expression NM_013738 average,[3],−0.305
same,Gene expression NM_013929 average,[3],0.033
same,Gene expression NM_018881 average,[3],−0.1679
same,Gene expression NM_019738 average,[3],−0.9543
same,Gene expression NM_030697 average,[3],−0.0261
same,Gene expression NM_053122 average,[3],−0.142
same,Gene expression NM_134147 average,[3],−0.1757
same,Gene expression NM_134188 average,[3],−0.07067
same,Gene expression X62701 average,[3],0.154
same,Gene expression data AF000969 (Cadps2),[3],−0.3717
same,Gene expression data AF022072 (Grb10),[3],−0.4275
same,Gene expression data AF065917 (Lif),[3],−0.2101
same,Gene expression data AF297615 (Ggta1),[3],−0.0684
same,Gene expression data AI594683 (Dmn),[3],−0.09783
same,Gene expression data AI596632 (Ptprg /// LOC632664),[3],−0.227
same,Gene expression data AI987929 (Ndrg1),[3],0.4414
same,Gene expression data AK004419 (Fbxl17),[3],0.01113
same,Gene expression data AK005731 (1700007K13Rik),[3],0.1143
same,Gene expression data AK007766 (1810044A24Rik),[3],−0.0226
same,Gene expression data AK007854 (1810053B23Rik),[3],−0.076
same,Gene expression data AK009736 (Gpr137b /// LOC664862 /// LOC673335),[3],0.5337
same,Gene expression data AK010447 (Smyd3),[3],0.07697
same,Gene expression data AK014608 (4632434l11Rik),[3],−0.1225
same,Gene expression data AK019979 (2610528E23Rik),[3],0.08447
same,Gene expression data AV095209 (Mthfd1l),[3],0.1564
same,Gene expression data AV141095 (1110033M05Rik),[3],−0.07047
same,Gene expression data AV173571 (1700106N22Rik),[3],0.04197
same,Gene expression data AV219418 (Ldhb),[3],0.0363
same,Gene expression data AV223474 (Zdhhc14),[3],−0.06957
same,Gene expression data AV298304 (Homez),[3],−0.03607
same,Gene expression data AV327248 (Zfp365 /// LOC674611),[3],−0.082
same,Gene expression data AV377066 (9130221J18Rik),[3],−0.3212
same,Gene expression data AW240761 (Tbc1d5),[3],−0.2006
same,Gene expression data AW543460 (Pard3),[3],−0.0366
same,Gene expression data AW543723,[3],−0.0994
same,Gene expression data AW986246 (Maoa),[3],0.3198
same,Gene expression data BB027848 (4732466D17Rik),[3],−0.2807
same,Gene expression data BB043558 (9230114K14Rik),[3],−0.3734
same,Gene expression data BB275142 (AW456874),[3],−0.02507
same,Gene expression data BB308836 (Ppm1l),[3],0.2558
same,Gene expression data BB318221 (Zdhhc14),[3],0.1138
same,Gene expression data BB463610 (4632434l11Rik),[3],−0.2188
same,Gene expression data BB526605 (Mipol1),[3],−0.01453
same,Gene expression data BB770528 (Rai2),[3],0.1386
same,Gene expression data BB821363 (Scfd2),[3],0.1765
same,Gene expression data BC004827 (Psat1),[3],−0.1011
same,Gene expression data BC008626 (Icam1),[3],−0.4422
same,Gene expression data BC010462 (BC010462),[3],0.05663
same,Gene expression data BC012247 (Dcxr),[3],−0.0122
same,Gene expression data BC012260 (Psmf1),[3],0.2545
same,Gene expression data BC015270 (Hist2h3c2),[3],−0.03353
same,Gene expression data BC016073 (Cdkal1),[3],−0.05183
same,Gene expression data BC016265 (Ube2e2),[3],−0.2547
same,Gene expression data BC019882 (Acaa1b),[3],0.0605
same,Gene expression data BC025501 (Aaas),[3],0.1979
same,Gene expression data BC025837 (Sbk1),[3],−0.04227
same,Gene expression data BC025915 (Cova1),[3],−0.02643
same,Gene expression data BC026422 (Tgm1),[3],0.2873
same,Gene expression data BF719766 (Thyn1),[3],−0.1935
same,Gene expression data BG065754 (Ccng1),[3],−0.2279
same,Gene expression data BG066903 (Kif16b),[3],−0.1277
same,Gene expression data BG069873 (Gnb1l),[3],−0.04763
same,Gene expression data BG070887 (Gtdc1),[3],−0.04273
same,Gene expression data BG076151 (Ppm1d),[3],0.07243
same,Gene expression data BG261907 (Large),[3],−0.1486
same,Gene expression data BI651416 (Cdc42bpg),[3],0.1364
same,Gene expression data BI660702 (Ell3),[3],0.05113
same,Gene expression data BM198879 (Ercc5),[3],−0.006767
same,Gene expression data BM230508 (A030007D23Rik),[3],0.03497
same,Gene expression data NM_007987 (Fas),[3],−0.05523
same,Gene expression data NM_008522 (Ltf),[3],−0.05963
same,Gene expression data NM_008576 (Abcc1),[3],0.106
same,Gene expression data NM_011176 (St14),[3],0.05783
same,Gene expression data NM_011316 (Saa4),[3],0.0831
same,Gene expression data NM_012006 (Acot1),[3],−0.2532
same,Gene expression data NM_013866 (Zfp385),[3],0.05893
same,Gene expression data NM_018770 (Igsf4a),[3],0.1391
same,Gene expression data NM_021451 (Pmaip1),[3],−0.5295
same,Gene expression data NM_025770 (Atg10),[3],−0.1372
same,Gene expression data NM_028803 (Gbe1),[3],−0.04593
same,Gene expression data NM_030697 (Ankrd47),[3],0.2204
same,Gene expression data NM_053168 (Trim11),[3],−0.0493
same,Gene expression data NM_134188 (Acot2),[3],−0.2881
same,Gene expression data Y15910 (Diap2),[3],−0.2692
